In US20160376659A1, “Breast Cancer Biomarker” (The University of Manchester, priority 2015, published 2016):
“Also recorded” adds a separate entry of the source.

Key:
Notch4 = Notch4 activity in MCF7, MDA-MB-231 and BT474 cells; assay type: cell-based
Notch1 = Notch1 activity in MCF7, MDA-MB-231 and BT474 cells; assay type: cell-based

| SMILES | Notch4 activity (Notch4) | Notch1 activity (Notch1) |
| --- | --- | --- |
| C[C@H](NC(=O)Cc1cc(F)cc(F)c1)C(=O)N[C@H](C(=O)OC(C)(C)C)c1ccccc1 [DAPT] | no Notch4; also recorded: not NOTCH4 activity | inhibit |
| C[C@H](NC(=O)Cc1cc(F)cc(F)c1)C(=O)N[C@@H]1C(=O)N(C)c2ccccc2-c2ccccc21 [DBZ] | no Notch4; also recorded: not NOTCH4 activity | inhibit |
